The text below walks through data of ChEMBL document CHEMBL3352500, “Identification and characterization of an anti-pseudomonal dichlorocarbazol derivative displaying anti-biofilm activity” (Bioorg Med Chem Lett, 2014).

Values after ≈ are worked out from the molar mass of the structure shown. Active and inactive are the calls of the source. No cut-off for these calls is given here.

For data set [1], the system named is Porphyromonas gingivalis. The experiment in a line: Antibacterial activity against Porphyromonas gingivalis ATCC 33277. Type of data set: functional.
The nature of data set [2]: Cytotoxicity against human endothelial cells at 4.63 ug/ml after 2 hrs. In kind it is cell-based. The settings on record: endothelial cell.
Data set [3] relates to Pseudomonas aeruginosa. The experiment in a line: Antibacterial activity against Pseudomonas aeruginosa after 24 hrs by two-fold broth microdilution method. In kind it is functional.
For data set [4], the system named is Pseudomonas aeruginosa. The experiment in a line: Bactericidal activity against Pseudomonas aeruginosa. In kind it is functional.
Data set [5] deals with Escherichia coli. The experiment in a line: Antibacterial activity against Escherichia coli TG1. Type of data set: functional.
The nature of data set [6]: Cytotoxicity against human mesenchymal stem cells assessed as cell viability at 4.63 ug/ml after 2 hrs. Type of data set: cell-based. The following applies: read-out: Activity.
Data set [7] concerns Pseudomonas aeruginosa. The experiment in a line: Antibacterial activity against Pseudomonas aeruginosa PA14. Type of data set: functional.
The test system of data set [8] is Porphyromonas gingivalis. The experiment in a line: Antibiofilm activity against Porphyromonas gingivalis ATCC 33277 after 72 hrs. Type of data set: functional.
Data set [9] deals with Pseudomonas aeruginosa. The experiment in a line: Antibacterial activity against ticarcillin-resistant Pseudomonas aeruginosa clinical isolate PA08. Type of data set: functional.
In data set [10] the test system is Pseudomonas aeruginosa. The experiment in a line: Antibiofilm activity against Pseudomonas aeruginosa on smooth titanium disc at 3.7 ug/ml after 19 hrs by confocal laser scanning microscopy. In kind it is functional, organism-based.
For data set [11], the system named is Staphylococcus aureus. The experiment in a line: Antibacterial activity against Staphylococcus aureus SH1000. In kind it is functional.
Data set [12] in a line: Cytotoxicity against human osteoblasts assessed as cell viability at 4.63 ug/ml after 2 hrs. The following applies: read-out: Activity. In kind it is cell-based, Osteoblast.
Data set [13] concerns Staphylococcus epidermidis. The experiment in a line: Antibiofilm activity against Staphylococcus epidermidis RP62A after 72 hrs. Type of data set: functional.
For data set [14], the system named is Pseudomonas aeruginosa. The experiment in a line: Antibiofilm activity against Pseudomonas aeruginosa PA14 after 24 hrs. In kind it is functional.
Data set [15] concerns Pseudomonas aeruginosa. The experiment in a line: Antibacterial activity against ticarcillin-resistant Pseudomonas aeruginosa clinical isolate PA53. In kind it is functional.
For data set [16], the system named is Pseudomonas aeruginosa. The experiment in a line: Antibiofilm activity against Pseudomonas aeruginosa assessed as decrease of culturable cells in biofilm at >= 4.63 ug/ml after 24 hrs by plate counting method. In kind it is functional, organism-based.
In data set [17] the test system is Pseudomonas aeruginosa. The experiment in a line: Antibacterial activity against Pseudomonas aeruginosa YM64 expressing mexAB-oprM::FRT/mexXY::FRT/mexCD-oprJ::FRT/mexEF-oprN::FRT deletion mutant. Type of data set: functional.
For data set [18], the system named is Pseudomonas aeruginosa. The experiment in a line: Antibacterial activity against wild-type Pseudomonas aeruginosa YM. Type of data set: functional.
For data set [19], the system named is Pseudomonas aeruginosa. The experiment in a line: Antibacterial activity against ticarcillin/piperacillin-resistant Pseudomonas aeruginosa clinical isolate PA346. In kind it is functional.
The subject of data set [20] is Pseudomonas aeruginosa. The experiment in a line: Antibiofilm activity against Pseudomonas aeruginosa on smooth titanium disc assessed as dead cells in biofilm at 12 ug/ml after 19 hrs by confocal laser scanning microscopy relative to control. In kind it is functional, organism-based.
The nature of data set [21]: Cytotoxicity against human endothelial cells assessed as effect on tube formation at 4.63 ug/ml after 4 hrs. The settings on record: endothelial cell. Type of data set: cell-based.
The test system of data set [22] is Staphylococcus epidermidis. The experiment in a line: Antibacterial activity against Staphylococcus epidermidis RP62A. Type of data set: functional.
The test system of data set [23] is Staphylococcus aureus. The experiment in a line: Antibiofilm activity against Staphylococcus aureus SH1000 after 24 hrs. Type of data set: functional.
Data set [24] relates to Escherichia coli. The experiment in a line: Antibiofilm activity against Escherichia coli TG1 after 24 hrs. Type of data set: functional.
Data set [25] relates to Pseudomonas aeruginosa. The experiment in a line: Antibacterial activity against ticarcillin-resistant Pseudomonas aeruginosa clinical isolate PA1271. In kind it is functional.
Data set [26] has as its system Pseudomonas aeruginosa. The experiment in a line: Antibacterial activity against ticarcillin-resistant Pseudomonas aeruginosa clinical isolate PA129. Type of data set: functional.
The test system of data set [27] is Pseudomonas aeruginosa. The experiment in a line: Antibacterial activity against ticarcillin-resistant Pseudomonas aeruginosa clinical isolate PA424. Type of data set: functional.
The subject of data set [28] is Pseudomonas aeruginosa. The experiment in a line: Antibacterial activity against ticarcillin/piperacillin/ceftazidime/cefepime-resistant Pseudomonas aeruginosa clinical isolate PA1255. In kind it is functional.
For data set [29], the system named is Pseudomonas aeruginosa. The experiment in a line: Antibacterial activity against Pseudomonas aeruginosa clinical isolate PA1256. Type of data set: functional.
The subject of data set [30] is Pseudomonas aeruginosa. The experiment in a line: Antibacterial activity against ticarcillin/cefepime-resistant Pseudomonas aeruginosa clinical isolate PA1250. Type of data set: functional.
The test system of data set [31] is Pseudomonas aeruginosa. The experiment in a line: Antibacterial activity against Pseudomonas aeruginosa clinical isolate PA1270. Type of data set: functional.
The subject of data set [32] is Pseudomonas aeruginosa. The experiment in a line: Antibiofilm activity against Pseudomonas aeruginosa on smooth titanium disc assessed as reduction in total area fraction at 1 to 12 ug/ml after 19 hrs by confocal laser scanning microscopy. In kind it is functional.

Consider `CCC(C)NCC(O)Cn1c2ccc(Cl)cc2c2cc(Cl)ccc21` (stereo not drawn), for which the MIC came to 4.63 µg/mL (≈ 12.7 µM) in [1]; 18.5 µg/mL (≈ 50.6 µM) in data set [3]; 4.63 µg/mL (≈ 12.7 µM) in data set [5]; 18.5 µg/mL (≈ 50.6 µM) in data set [7]; 18.5 µg/mL (≈ 50.6 µM) in data set [9]; 9.25 µg/mL (≈ 25.3 µM) in [11]. The MIC came out at 18.5 µg/mL (≈ 50.6 µM) in [15]; 4.63 µg/mL (≈ 12.7 µM) in data set [17]; 18.5 µg/mL (≈ 50.6 µM) in [18]; 18.5 µg/mL (≈ 50.6 µM) in data set [19]; 9.25 µg/mL (≈ 25.3 µM) in [22]; 18.5 µg/mL (≈ 50.6 µM) in [25]. Also, the MIC is 18.5 µg/mL (≈ 50.6 µM) in [26]; 18.5 µg/mL (≈ 50.6 µM) in data set [27]; 18.5 µg/mL (≈ 50.6 µM) in data set [28]; 9.25 µg/mL (≈ 25.3 µM) in [29]; 18.5 µg/mL (≈ 50.6 µM) in data set [30]; 18.5 µg/mL (≈ 50.6 µM) in data set [31]. The Activity entry in [2] was “Toxic”; in data set [21], “Non-toxic”. Further, the MBC in data set [4] came out at 18.5 µg/mL (≈ 50.6 µM). The viability at 2 h, 4.63 ug/ml in [6] and in [12] was above 80% each time. The MBIC in [8] was determined as 5.11 µg/mL; in [13], 9.25 µg/mL; in data set [14] it was 18.5 µg/mL; in data set [23], 9.25 µg/mL. Moreover, the outcome in data set [10], in data set [16] and in [20] was Active. In addition, the MBIC90 in [24] amounted to 2.22 µg/mL. Besides, the “inhibition (INH)” value in [32] is 50%.
Take `CCN(CC)CC(O)Cn1c2ccc(Cl)cc2c2cc(Cl)ccc21` (stereo not drawn): in data set [3], it took 37 µg/mL (≈ 101 µM) to inhibit growth (MIC).
For the compound `CC1COc2c(N3CCN(C)CC3)c(F)cc3c(=O)c(C(=O)O)cn1c23` (stereo not drawn) [OFLOXACIN], the minimum inhibitory concentration (MIC) in data set [5] came out at 0.1 µg/mL (≈ 0.277 µM).
With `OC(CN1CCCCC1)Cn1c2ccc(Cl)cc2c2cc(Cl)ccc21` (stereo not drawn), in data set [3], the MIC is 74 µg/mL (≈ 196 µM).
As for `CN(C)CC(O)Cn1c2ccc(Br)cc2c2cc(Br)ccc21` (stereo not drawn), the minimum inhibitory concentration (MIC) in data set [3] is 18.5 µg/mL (≈ 43.4 µM). This MIC lies about 4-fold lower than the previous one.
Still for that read-out and setting: under `OCCN(CCO)CC(O)Cn1c2ccc(Cl)cc2c2cc(Cl)ccc21` (stereo not drawn) stands above 74 µg/mL.
For the compound `N=C(NCCCCCCNC(=N)NC(=N)Nc1ccc(Cl)cc1)NC(=N)Nc1ccc(Cl)cc1` [CHLORHEXIDINE], it took 4 µg/mL (≈ 7.91 µM) to inhibit growth in data set [1] (MIC).
The compound `O=C(O)c1cn(C2CC2)c2cc(N3CCNCC3)c(F)cc2c1=O` [CIPROFLOXACIN] registered a minimum inhibitory concentration (MIC) in [22] of 1.56 µg/mL (≈ 4.71 µM).
In data set [3], `OC(CNCC1CCCO1)Cn1c2ccc(Cl)cc2c2cc(Cl)ccc21` (stereo not drawn) displayed a minimum inhibitory concentration (MIC) of 18.5 µg/mL (≈ 47 µM).
In turn, `OCCn1c2ccccc2c2cc(Cl)ccc21` came in with a minimal inhibitory concentration (MIC) in data set [3] of 18.5 µg/mL (≈ 75.3 µM).
Take GENTAMICIN: inhibition of growth in data set [11] (MIC) required 12.5 µg/mL.
In turn, `CN(CCO)CC(O)Cn1c2ccc(Cl)cc2c2cc(Cl)ccc21` (stereo not drawn) returned an MIC in data set [3] of 18.5 µg/mL (≈ 50.4 µM).
